Tested on: hepatocytes
Test: Seq-Well scRNA-Seq of hepatocytes after APAP overdose (signature scores, DEG vs untreated)
Type: in vivo, mouse

## CC(=O)Nc1ccc(O)cc1 [APAP, acetaminophen]
Cluster A48 (APAP, 48 h)
  avg_logFC Snx3: 0.2562
  avg_logFC Sord: 0.3763
  avg_logFC St3gal5: 0.3766
  avg_logFC Stbd1: 0.2667
  avg_logFC Sult1a1: 0.3856
  avg_logFC Sult1d1: 0.5282
  avg_logFC Syvn1: 0.2867
  avg_logFC Tcea3: 0.3934
  avg_logFC Tef: 0.3162
  avg_logFC Tmbim4: 0.3931
  avg_logFC Tmbim6: 0.3567
  avg_logFC Tmem219: 0.2647
  avg_logFC Ttc36: 0.6145
  avg_logFC Ttpa: 0.4757
  avg_logFC Ttr: 0.4205
  avg_logFC Ugt2b5: 0.6108
  avg_logFC Ugt2b36: 0.3503
  avg_logFC Upb1: 0.3631
  avg_logFC Usmg5: 0.4173
  avg_logFC Vnn3: 0.3054
  avg_logFC Vtn: 0.3638
  avg_logFC Yipf3: 0.2702
  avg_logFC Zfp91: 0.3221
Cluster A96
  pct.1, gene Abcc3: 0.733
  pct.1, gene Acaa1b: 0.986
  pct.1, gene Acat1: 0.917
  pct.1, gene Acot1: 0.459
  pct.1, gene Agpat6: 0.743
  pct.1, gene Agt: 0.912
  pct.1, gene Akr1d1: 0.721
  pct.1, gene Aldh9a1: 0.884
  pct.1, gene Aplp2: 0.826
  pct.1, gene Apo17a: 0.559
  pct.1, gene Apoc2: 0.901
  pct.1, gene Aqp9: 0.801
  pct.1, gene Arl4a: 0.517
  pct.1, gene Asl: 0.896
  pct.1, gene Baat: 0.862
  pct.1, gene Bnip3: 0.716
  pct.1, gene Cd36: 0.299
  pct.1, gene Ces1e: 0.71
  pct.1, gene Cox5a: 0.813
  pct.1, gene Cox6a1: 0.943
  pct.1, gene Cox8a: 0.737
  pct.1, gene Cpeb4: 0.527
  pct.1, gene Cpox: 0.634
  pct.1, gene Cpt1a: 0.837
  pct.1, gene Creg1: 0.985
  pct.1, gene Csad: 0.843
  pct.1, gene Ctage5: 0.837
  pct.1, gene Cth: 0.944
  pct.1, gene Cxcl12: 0.635
  pct.1, gene D4Wsu53e: 0.597
  pct.1, gene Decr2: 0.813
  pct.1, gene Dhdh: 0.734
  pct.1, gene Etfdh: 0.811
  pct.1, gene Etnppl: 0.677
  pct.1, gene F5: 0.858
  pct.1, gene Fmo1: 0.606
  pct.1, gene G0s2: 0.525
  pct.1, gene G6pc: 0.86
  pct.1, gene Gabarapl1: 0.881
  pct.1, gene Gadd45b: 0.452
  pct.1, gene Gas5: 0.68
  pct.1, gene Gm4952: 0.663
  pct.1, gene Gsta2: 0.522
  pct.1, gene Gstt3: 0.541
  pct.1, gene Gyk: 0.616
  pct.1, gene Hmgcl: 0.871
  pct.1, gene Hmgcs1: 0.858
  pct.1, gene Hpgd: 0.588
  pct.1, gene Hsd17b7: 0.56
  pct.1, gene Hsd17b10: 0.841
  pct.1, gene Igfbp1: 0.826
  pct.1, gene Kif1b: 0.686
  pct.1, gene Lcat: 0.886
  pct.1, gene Mia3: 0.81
  pct.1, gene Ndufa3: 0.737
  pct.1, gene Ndufa7: 0.818
  pct.1, gene Nr1i3: 0.625
  pct.1, gene Oat: 0.653
  pct.1, gene Pon1: 0.965
  pct.1, gene Por: 0.858
  pct.1, gene Ppp1r3b: 0.536
  pct.1, gene Ppp2r5a: 0.764
  pct.1, gene Ptms: 0.806
  pct.1, gene Pxmp4: 0.687
  pct.1, gene Rdh16: 0.494
  pct.1, gene Rdx: 0.824
  pct.1, gene Rgn: 0.899
  pct.1, gene Sc4mol: 0.781
  pct.1, gene Slc4a4: 0.609
  pct.1, gene Slc25a20: 0.671
  pct.1, gene Slco1a4: 0.507
  pct.1, gene Snord118: 0.564
  pct.1, gene Tgoln1: 0.756
  pct.1, gene Tmed5: 0.714
  pct.1, gene Tobi: 0.649
  pct.1, gene Tsc22d3: 0.534
  pct.1, gene Zfp36l1: 0.601
  pct.1, gene Zfp91: 0.693

Reference: patent US20230053540A1, “TREATMENT OF LIVER INJURY” (Massachusetts Institute of Technology, priority 2019, published 2023)
